Converted amounts (≈) assume the structure as drawn. Like-named read-outs stand apart in the source and are kept apart here.
Key:
Type in all cases: cell-based
[1] = tested on: E. coli M 50; experiment: Antibacterial activity (MIC), agar dilution per CLSI; settings: Escherichia coli, read-out: MIC
Summary of the method: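 Susceptibility is determined by the CLSI agar dilution procedure, in which appropriately diluted overnight cultures are applied to compound-containing agar prepared as doubling dilutions. After incubation (35±2° C., ambient air, 16-20 hours), growth or its absence defines the MIC, given in mcg/ml.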

[2] = tested on: E. coli NCTC 13351; experiment: as above; settings: Escherichia coli, NCTC13351, Table 3, E. coli NCTC 13351 expressing ESBL, 16-20 hours, 35±2° C., read-out: MIC
Summary of the method: (§1)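 Agar dilution MIC per CLSI: overnight cultures diluted and inoculated onto agar containing doubling dilutions of compound. Growth/no growth read after 16-20 h at 35±2° C in ambient air. Strains express ESBL.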

[3] = tested on: E. coli 7 MP; experiment: as above; settings: Escherichia coli, Table 3, E. coli 7 MP expressing ESBL, read-out: MIC
Summary of the method: as §1

[4] = tested on: E. Coli W 13353; experiment: Antibacterial activity (MIC) against MDR Gram negative strains; settings: Escherichia coli; Table 4; E. Coli W 13353, Class A ESBL, MDR; read-out: MIC
Description: (§2) The biological activity of representative compounds according to the invention against various bacterial strains was investigated. In a typical study, overnight grown bacterial cultures were diluted appropriately and inoculated on the agar media containing doubling dilutions of the test compounds. Observation for growth or no growth was performed after 16-20 hours of incubation at 35±2° C. in ambient air. The overall procedure was performed as per Clinical and Laboratory Standards Institute (CLSI) recommendations (Clinical and Laboratory Standards Institute (CLSI), Performance Standards for Antimicrobial Susceptibility Testing, 20th Informational Supplement, M 100-S20, Volume 30, No. 1, 2010).
(§3) The activities are expressed as MICs (mcg/ml).

[5] = tested on: E. Coli B 89; experiment: as above; settings: Escherichia coli; Table 4; E. Coli B 89, Class C ESBL, MDR; read-out: MIC
Description: as §2, §3

[6] = tested on: K penumoniae H 523; experiment: as above; settings: Table 4; K penumoniae H 523, KPC ESBL, MDR; read-out: MIC
Description: as §2, §3

[7] = tested on: K. penumoniae S 48; experiment: as above; settings: Table 5; K. penumoniae S 48, Class B ESBL, MDR; read-out: MIC
Description: as §2, §3

[8] = tested on: P. aeruginosa Ps 21; experiment: as above; settings: Pseudomonas aeruginosa, PS21; Table 5; P. aeruginosa Ps 21; read-out: MIC
Description: as §2, §3

[9] = tested on: E. Coli M 3; experiment: as above; settings: Escherichia coli; Table 5; E. Coli M 3, Class B ESBL, MDR; read-out: MIC
Description: as §2, §3

[10] = tested on: P. aeruginosa ATCC 27853; experiment: as above; settings: Pseudomonas aeruginosa, ATCC27853; Table 5; P. aeruginosa ATCC 27853; read-out: MIC
Description: as §2, §3

[11] = tested on: E. Coli H 484; experiment: as above; settings: Escherichia coli; Table 4; E. Coli H 484, Class C ESBL, MDR; read-out: MIC
Description: as §2, §3

[12] = tested on: K penumoniae H 525; experiment: as above; settings: Table 4; K penumoniae H 525, KPC ESBL, MDR; read-out: MIC
Description: as §2, §3

[13] = tested on: E. Coli W 13351; experiment: as above; settings: Escherichia coli; Table 4; E. Coli W 13351, Class A ESBL, MDR; read-out: MIC
Description: as §2, §3

[14] = tested on: K penumoniae H 521; experiment: as above; settings: Table 4; K penumoniae H 521, KPC ESBL, MDR; read-out: MIC
Description: as §2, §3

[15] = tested on: E. Coli W 13352; experiment: as above; settings: Escherichia coli; Table 4; E. Coli W 13352, Class A ESBL, MDR; read-out: MIC
Description: as §2, §3

[16] = tested on: P. aeruginosa Ps 32; experiment: as above; settings: Pseudomonas aeruginosa, PS32; Table 5; P. aeruginosa Ps 32; read-out: MIC
Description: as §2, §3

[17] = tested on: E. Coli M 44; experiment: as above; settings: Escherichia coli; Table 5; E. Coli M 44, Class B ESBL, MDR; read-out: MIC
Description: as §2, §3

[18] = M50, Table 3, E. coli M 50 expressing ESBL, agar dilution
[19] = M50, Table 4, E. Coli M 50, Class C ESBL, MDR

Structure (SMILES)	MIC [1, 18] [µg/mL]	MIC [1, 19] [µg/mL]	MIC [2] [µg/mL]	MIC [3] [µg/mL]	MIC [4] [µg/mL]	MIC [5] [µg/mL]	MIC [6] [µg/mL]	MIC [7] [µg/mL]	MIC [8] [µg/mL]	MIC [9] [µg/mL]	MIC [10] [µg/mL]	MIC [11] [µg/mL]	MIC [12] [µg/mL]	MIC [13] [µg/mL]	MIC [14] [µg/mL]	MIC [15] [µg/mL]	MIC [16] [µg/mL]	MIC [17] [µg/mL]
N#CCC(=O)NNC(=O)[C@@H]1CC[C@@H]2CN1C(=O)N2OS(=O)(=O)[O-].[Na+] [Example 43, Sodium salt of trans-sulfuric acid mono-[2-(N′-(cyano-acetyl)-hydrazinocarbonyl)-7-oxo-1,6-diaza-bicyclo[3.2.1]oct-6-yl]ester]	2	1	1	8	1	1	1	1	> 32	4	> 32	8	1	1	2	1	> 32	0.5
O=C(NNC(=O)[C@H]1CC[C@@H]2CN1C(=O)N2OS(=O)(=O)O)C1CCCNC1 (mixture of isomers) [Example 14, trans-sulfuric acid mono-[2-(N′—((RS)-piperidin-3-carbonyl)-hydrazinocarbonyl)-7-oxo-1,6-diaza-bicyclo[3.2.1]oct-6-yl]ester]	0.25 (≈ 0.639 µM)	0.5 (≈ 1.28 µM)	0.5 (≈ 1.28 µM)	2 (≈ 5.11 µM)	0.5 (≈ 1.28 µM)	0.5 (≈ 1.28 µM)	0.25 (≈ 0.639 µM)	4 (≈ 10.2 µM)	16 (≈ 40.9 µM)	0.5 (≈ 1.28 µM)	8 (≈ 20.4 µM)	2 (≈ 5.11 µM)	0.25 (≈ 0.639 µM)	0.5 (≈ 1.28 µM)	0.5 (≈ 1.28 µM)	0.5 (≈ 1.28 µM)	8 (≈ 20.4 µM)	0.25 (≈ 0.639 µM)
O=C(NNC(=O)[C@H]1CC[C@@H]2CN1C(=O)N2OS(=O)(=O)O)[C@@H]1CCCCN1 (mixture of isomers) [Example 17, trans-sulfuric acid mono-[2-(N′—((S)-piperidin-2-carbonyl)-hydrazinocarbonyl)-7-oxo-1,6-diaza-bicyclo[3.2.1]oct-6-yl]ester]	0.5	0.5	0.5	2	0.25	0.5	0.5	0.5	> 32	0.5	> 32	4	0.5	0.5	0.5	0.5	> 32	0.5
N[C@@H]1CN[C@H](C(=O)NNC(=O)[C@H]2CC[C@@H]3CN2C(=O)N3OS(=O)(=O)O)C1 (mixture of isomers) [Example 35, trans-sulfuric acid mono-[2-(N′-[(2S,4S)-4-amino-pyrrolidin-2-carbonyl]-hydrazinocarbonyl)-7-oxo-1,6-diaza-bicyclo[3.2.1]oct-6-yl]ester]	1	1	1	4	1	1	1	2	> 32	1	> 32	1	1	1	2	1	32	2
O=C(CN1CCNCC1)NNC(=O)[C@H]1CC[C@@H]2CN1C(=O)N2OS(=O)(=O)O (relative stereo) [Example 19, trans-sulfuric acid mono-[2-(N′-(piperazin-4-yl-acetyl)-hydrazinocarbonyl)-7-oxo-1,6-diaza-bicyclo[3.2.1]oct-6-yl]ester]	1 (≈ 2.46 µM)	2 (≈ 4.92 µM)	1 (≈ 2.46 µM)	2 (≈ 4.92 µM)	2 (≈ 4.92 µM)	1 (≈ 2.46 µM)	1 (≈ 2.46 µM)	4 (≈ 9.84 µM)	> 32	1 (≈ 2.46 µM)	32 (≈ 78.7 µM)	4 (≈ 9.84 µM)	1 (≈ 2.46 µM)	2 (≈ 4.92 µM)	1 (≈ 2.46 µM)	2 (≈ 4.92 µM)	> 32	1 (≈ 2.46 µM)
O=C(NNC(=O)[C@H]1CC[C@@H]2CN1C(=O)N2OS(=O)(=O)O)C1CCNCC1 (relative stereo) [Example 13, trans-sulfuric acid mono-[2-(N′-(piperidin-4-carbonyl)-hydrazinocarbonyl)-7-oxo-1,6-diaza-bicyclo[3.2.1]oct-6-yl]ester]	1 (≈ 2.55 µM)	1 (≈ 2.55 µM)	1 (≈ 2.55 µM)	2 (≈ 5.11 µM)	1 (≈ 2.55 µM)	1 (≈ 2.55 µM)	0.5 (≈ 1.28 µM)	1 (≈ 2.55 µM)	32 (≈ 81.8 µM)	1 (≈ 2.55 µM)	32 (≈ 81.8 µM)	4 (≈ 10.2 µM)	1 (≈ 2.55 µM)	1 (≈ 2.55 µM)	1 (≈ 2.55 µM)	2 (≈ 5.11 µM)	16 (≈ 40.9 µM)	1 (≈ 2.55 µM)
O=C(NNC(=O)[C@H]1CC[C@@H]2CN1C(=O)N2OS(=O)(=O)O)C1CNCCN1 (mixture of isomers) [Example 38, trans-sulfuric acid mono-[2-(N′—((RS)-piperazin-2-carbonyl)-hydrazinocarbonyl)-7-oxo-1,6-diaza-bicyclo[3.2.1]oct-6-yl]ester]	2 (≈ 5.1 µM)	2 (≈ 5.1 µM)	4 (≈ 10.2 µM)	8 (≈ 20.4 µM)	2 (≈ 5.1 µM)	2 (≈ 5.1 µM)	2 (≈ 5.1 µM)	4 (≈ 10.2 µM)	> 32	1 (≈ 2.55 µM)	> 32	8 (≈ 20.4 µM)	2 (≈ 5.1 µM)	4 (≈ 10.2 µM)	2 (≈ 5.1 µM)	4 (≈ 10.2 µM)	> 32	4 (≈ 10.2 µM)

From patent publication US9381200B2, “Nitrogen containing compounds” (WOCKHARDT LIMITED, priority 2011, dated 2016)
